In US10975068B2, “6-aminopyridin-3-yl thiazoles as modulators of RORγT” (Janssen Pharmaceutica NV, priority 2016, dated 2021):
pIC50, pKd: −log10 of the molar value. Like-named read-outs stand apart in the source and are kept apart here.

Tests used:
[1] = target: human RORγt ligand binding domain (RORγt LBD) (Homo sapiens (Human), UniProt P51449); assay: RORγt ThermoFluor® assay (thermal shift binding); details: read-out: ThermoFluor® Assay, Kd
In short: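 His-tagged human RORγt LBD (0.065 mg/mL) with 60 μM 1,8-ANS in 100 mM Hepes pH 7.0, 10 mM NaCl, 2.5 mM GSH, 0.002% Tween-20 was heated at 1 °C/min.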

full-length human RORγt = full-length human RORγt (Homo sapiens (Human), UniProt P51449); assay: RORγt (full-length human) reporter assay, Conditions B or C; format: cell-based; details: for pIC50: read-out: RORγt (FL) Reporter Assay B or C, IC50; for inhibition at 3 µM: at 3 μM compound concentration, read-out: RORγt (FL) Reporter Assay B or C, % inhibition; for RORγt (FL) Reporter Assay B or C, % inhibition (value marked *): marked *: footnote not given
In short: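 HEK293T cells transiently co-transfected with GAL4-DBD–full-length human RORγt (nt 142-1635, NM_001001523.1) plus GAL4-firefly and CMV-Renilla luciferase reporters; compounds added 4-6 h post-transfection for 16-20 h in 1.3% FBS, 0.1% DMSO. Firefly signal normalized to DMSO and saturating reference compound, then to Renilla; IC50 from concentration plots.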

full-length human RORγt, sequence (P51449 other isoform, or with tags, fused parts or gaps): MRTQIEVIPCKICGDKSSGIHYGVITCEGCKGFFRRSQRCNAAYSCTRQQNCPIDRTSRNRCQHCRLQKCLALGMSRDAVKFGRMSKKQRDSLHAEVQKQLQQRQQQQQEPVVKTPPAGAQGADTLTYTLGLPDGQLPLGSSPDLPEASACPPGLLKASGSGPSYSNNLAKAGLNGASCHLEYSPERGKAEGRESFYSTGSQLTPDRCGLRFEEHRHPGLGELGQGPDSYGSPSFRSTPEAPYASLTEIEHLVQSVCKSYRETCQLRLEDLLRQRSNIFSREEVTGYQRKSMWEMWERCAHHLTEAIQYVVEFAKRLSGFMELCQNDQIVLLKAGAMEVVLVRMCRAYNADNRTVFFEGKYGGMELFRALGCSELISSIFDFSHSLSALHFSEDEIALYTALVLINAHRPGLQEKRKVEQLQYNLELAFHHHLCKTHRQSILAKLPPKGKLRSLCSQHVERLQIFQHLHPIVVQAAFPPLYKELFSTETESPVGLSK
human RORγt ligand binding domain (RORγt LBD), sequence (P51449 other isoform, or with tags, fused parts or gaps): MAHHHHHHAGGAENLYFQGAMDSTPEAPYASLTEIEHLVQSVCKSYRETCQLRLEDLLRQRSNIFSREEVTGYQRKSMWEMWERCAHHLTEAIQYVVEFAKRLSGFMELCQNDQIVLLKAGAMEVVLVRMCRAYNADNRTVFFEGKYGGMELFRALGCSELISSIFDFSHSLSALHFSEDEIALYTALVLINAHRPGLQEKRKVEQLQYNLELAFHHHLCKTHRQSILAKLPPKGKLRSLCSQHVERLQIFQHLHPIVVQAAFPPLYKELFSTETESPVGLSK

| SMILES | pKd [1] | pIC50 (full-length human RORγt; Conditions B or C) | inhibition at 6 µM (full-length human RORγt; read-out: RORγt (FL) Reporter Assay B or C, % inhibition @ 6 μM, Conditions B or C, @ 6 μM) | inhibition at 3 µM (full-length human RORγt) | pIC50 (full-length human RORγt) | RORγt (FL) Reporter Assay B or C, % inhibition (value marked *) (full-length human RORγt; Conditions B or C) |
| --- | --- | --- | --- | --- | --- | --- |
| CC[C@H](Nc1cc(C(F)F)c(-c2sc(C(=O)N[C@H]3COC[C@@H]3O)nc2C(=O)N2CCC[C@@H]2C)cn1)C(F)(F)F [Example 239, 5-[4-(Difluoromethyl)-6-[[(1S)-1-(trifluoromethyl)propyl]amino]-3-pyridyl]-N-[(3S,4R)-4-hydroxytetrahydrofuran-3-yl]-4-[(2S)-2-methylpyrrolidine-1-carbonyl]thiazole-2-carboxamide] | 8.27 | 7.72 | – | – | – | 105* % |
| C[C@H]1CCCN1C(=O)c1nc(C(=O)NCC2(O)CC2)sc1-c1cnc(NC2CCCC2)cc1C(F)F [Example 2, (S)-5-(6-(Cyclopentylamino)-4-(difluoromethyl)pyridin-3-yl)-N-((1-hydroxycyclopropyl)methyl)-4-(2-methylpyrrolidine-1-carbonyl)thiazole-2-carboxamide] | 7.40 | 7.11 | – | – | – | 95* % |
| C[C@H](Nc1cc(C(F)F)c(-c2sc(C(=O)NC3CCC3O)nc2C(=O)N2CCC[C@@H]2C)cn1)C(F)(F)F (stereo partly drawn) [Example 386, 5-(4-(Difluoromethyl)-6-(((S)-1,1,1-trifluoropropan-2-yl)amino)pyridin-3-yl)-N-(trans-2-hydroxycyclobutyl)-4-((S)-2-methylpyrrolidine-1-carbonyl)thiazole-2-carboxamide] | 8.03 | – | – | 99% | 7.14 | – |
| CC[C@H](Nc1cc(C(F)F)c(-c2sc(C(=O)N[C@H](C)CO)nc2C(=O)N2CCC[C@@H]2C)cn1)C(F)(F)F [Example 234, 5-[4-(Difluoromethyl)-6-[[(1S)-1-(trifluoromethyl)propyl]amino]-3-pyridyl]-N-[(1R)-2-hydroxy-1-methyl-ethyl]-4-[(2S)-2-methylpyrrolidine-1-carbonyl]thiazole-2-carboxamide] | 8.28 | 7.38 | – | – | – | 116* % |
| CC[C@H](Nc1cc(C(F)F)c(-c2sc(C(=O)N[C@H]3C[C@H](O)C3)nc2C(=O)N2C3CCC2CC3)cn1)C(F)(F)F [Example 222, 4-((1s,4s)-7-Azabicyclo[2.2.1]heptane-7-carbonyl)-5-(4-(difluoromethyl)-6-(((1S)-1-(trifluoromethyl)propyl)amino)-3-pyridyl)-N-((1r,3S)-3-hydroxycyclobutyl)thiazole-2-carboxamide] | 8.00 | 7.92 | – | – | – | 113* % |

These reach a higher pKd [1]. Values come first.

| pKd [1] | pIC50 (full-length human RORγt; Conditions B or C) | inhibition at 6 µM (full-length human RORγt; read-out: RORγt (FL) Reporter Assay B or C, % inhibition @ 6 μM, Conditions B or C, @ 6 μM) | inhibition at 3 µM (full-length human RORγt) | pIC50 (full-length human RORγt) | RORγt (FL) Reporter Assay B or C, % inhibition (value marked *) (full-length human RORγt; Conditions B or C) | SMILES |
| --- | --- | --- | --- | --- | --- | --- |
| 8.41 | 7.70 | 114% | – | – | – | C[C@H]1CCCN1C(=O)c1nc(C(=O)NCC(C)(C)O)sc1-c1cnc(N[C@@H]2CCCCC2(F)F)cc1C(F)(F)F (relative stereo) [Example 35, 5-(6-(((R*)-2,2-Difluorocyclohexyl)amino)-4-(trifluoromethyl)pyridin-3-yl)-N-(2-hydroxy-2-methylpropyl)-4-((S)-2-methylpyrrolidine-1-carbonyl)thiazole-2-carboxamide] |
| 9.68 | – | – | 84% | 7.47 | – | CC[C@H](Nc1cc(C(F)F)c(-c2sc(C(=O)N[C@H]3CCC[C@@H]3O)nc2C(=O)N2CC(F)(F)C[C@@H]2C)cn1)C(F)(F)F [Example 419, 4-[(2S)-4,4-Difluoro-2-methyl-pyrrolidine-1-carbonyl]-5-[4-(difluoromethyl)-6-[[(1S)-1-(trifluoromethyl)propyl]amino]-3-pyridyl]-N-[(1S,2S)-2-hydroxycyclopentyl]thiazole-2-carboxamide] |
| 8.68 | – | – | 108% | 7.68 | – | CC[C@H](Nc1cc(C(F)F)c(-c2sc(C(=O)N[C@H]3C[C@H](O)C3)nc2C(=O)N2CC(F)(F)C[C@@H]2C)cn1)C(F)(F)F [Example 449, 4-((S)-4,4-Difluoro-2-methylpyrrolidine-1-carbonyl)-5-(4-(difluoromethyl)-6-(((S)-1,1,1-trifluorobutan-2-yl)amino)pyridin-3-yl)-N-((1R,3S)-3-hydroxycyclobutyl)thiazole-2-carboxamide] |
